Laboratory results published in ChEMBL document CHEMBL5252617, “Design, synthesis and biological evaluation of novel N-(methyl-d3) pyridazine-3-carboxamide derivatives as TYK2 inhibitors” (Bioorg Med Chem Lett, 2023).
pIC50: −log10 of the molar value.

Legend:
[1] = Stability in mouse liver microsomes assessed as parent compound remaining measured after 60 mins; type: ADME, Microsome; conditions: read-out: Stability
[2] = Plasma protein binding in anti-CD40 induced immunodeficient Rag1 KO colitis mouse model; type: ADME, cell-free; conditions: read-out: PPB (converted)
JAK3/JAK1 = JAK3/JAK1 (Homo sapiens, UniProt P23458+P52333); experiment: Inhibition of JAK1/3 dependent IL-2 stimulated STAT5 phosphorylation in CD3-positive T cells (unknown origin); type: cell-based, CD3-positive T cell
[3] = target: Tyrosine-protein kinase JAK2 (Homo sapiens, UniProt O60674); experiment: Inhibition of JAK2 dependent GM-CSF stimulated STAT3 phosphorylation in human TF-1 cells; type: cell-based
[4] = AUC(0 to infinity) in mouse at 1 mg/kg, iv; type: ADME, organism-based; set-up: dose 1 mg/kg, route iv; conditions: in vivo
[5] = Volume of distribution in mouse at 1 mg/kg, iv; type: ADME, organism-based; conditions: in vivo
CYP2C9 = CYP2C9 (Homo sapiens, UniProt P11712); experiment: Inhibition of CYP2C9 (unknown origin) at 1 uM relative to control; type: ADME
[6] = Half life in mouse at 30 mg/kg, IG; type: ADME, organism-based; conditions: in vivo, po
CYP2D6 = CYP2D6 (Homo sapiens, UniProt P10635); experiment: Inhibition of CYP2D6 (unknown origin) at 1 uM relative to control; type: ADME
[7] = MRT (0 to t) in mouse at 30 mg/kg, IG; type: ADME, organism-based; conditions: in vivo, po
[8] = C0 in mouse at 1 mg/kg, iv; type: ADME, organism-based; conditions: in vivo
[9] = target: Non-receptor tyrosine-protein kinase TYK2 (Homo sapiens, UniProt P29597); experiment: Inhibition of TYK2 dependent IFNalpha-stimulated STAT3 phosphorylation in human Jurkat cells; type: cell-based
CYP3A4 = CYP3A4 (Homo sapiens, UniProt P08684); experiment: Inhibition of CYP3A4 (unknown origin) at 1 uM relative to control; type: ADME
[10] = Bioavailability in mouse at 30 mg/kg, IG; type: ADME, organism-based; conditions: in vivo, po
[11] = Half life in mouse at 1 mg/kg, iv; type: ADME, organism-based; conditions: in vivo
CYP2B6 = target: T1, CYP2B6 (Homo sapiens, UniProt P20813); experiment: Inhibition of CYP2B6 (unknown origin) at 1 uM relative to control; type: ADME
T1 sequence (P20813 whole entry): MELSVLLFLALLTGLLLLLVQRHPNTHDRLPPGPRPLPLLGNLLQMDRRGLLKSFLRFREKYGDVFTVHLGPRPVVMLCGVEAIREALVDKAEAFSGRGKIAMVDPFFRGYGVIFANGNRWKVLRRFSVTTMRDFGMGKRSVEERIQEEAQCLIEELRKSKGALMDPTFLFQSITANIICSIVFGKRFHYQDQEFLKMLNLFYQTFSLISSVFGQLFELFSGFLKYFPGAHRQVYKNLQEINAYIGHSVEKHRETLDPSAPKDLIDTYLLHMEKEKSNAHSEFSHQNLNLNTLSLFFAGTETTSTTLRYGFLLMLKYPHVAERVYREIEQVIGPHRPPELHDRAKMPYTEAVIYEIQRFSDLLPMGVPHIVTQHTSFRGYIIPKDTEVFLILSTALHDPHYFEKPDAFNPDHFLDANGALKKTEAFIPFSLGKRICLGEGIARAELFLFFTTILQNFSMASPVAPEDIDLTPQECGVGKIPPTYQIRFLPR

[12] = Clearance in mouse at 1 mg/kg, iv; type: ADME, organism-based; conditions: in vivo
CYP2C19 = CYP2C19 (Homo sapiens, UniProt P33261); experiment: Inhibition of CYP2C19 (unknown origin) at 1 uM relative to control; type: ADME
[13] = MRT (0 to t) in mouse at 1 mg/kg, iv; type: ADME, organism-based; conditions: in vivo
[14] = Tmax in mouse at 30 mg/kg, IG; type: ADME, organism-based; conditions: in vivo, po
CYP1A2 = target: T2, CYP1A2 (Homo sapiens, UniProt P05177); experiment: Inhibition of CYP1A2 (unknown origin) at 1 uM relative to control; type: ADME
T2 sequence (P05177 whole entry): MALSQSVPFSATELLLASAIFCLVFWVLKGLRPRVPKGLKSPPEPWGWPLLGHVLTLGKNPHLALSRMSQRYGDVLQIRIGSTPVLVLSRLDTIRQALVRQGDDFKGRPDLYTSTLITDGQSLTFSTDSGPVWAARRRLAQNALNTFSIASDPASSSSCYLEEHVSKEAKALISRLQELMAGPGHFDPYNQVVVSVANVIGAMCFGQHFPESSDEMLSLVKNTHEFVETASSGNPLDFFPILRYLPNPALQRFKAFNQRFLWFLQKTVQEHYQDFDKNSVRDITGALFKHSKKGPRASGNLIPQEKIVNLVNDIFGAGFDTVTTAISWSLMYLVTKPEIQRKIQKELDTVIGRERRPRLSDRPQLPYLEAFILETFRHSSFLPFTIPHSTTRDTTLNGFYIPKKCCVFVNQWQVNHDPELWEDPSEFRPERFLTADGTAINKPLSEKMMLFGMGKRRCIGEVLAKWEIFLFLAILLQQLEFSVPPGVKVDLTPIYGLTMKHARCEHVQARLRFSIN

[15] = Stability in human liver microsomes assessed as parent compound remaining measured after 60 mins; type: ADME, Microsome; conditions: read-out: Stability
[16] = Toxicity in anti-CD40 induced immunodeficient Rag1 KO colitis mouse model assessed as body weight loss at 10 to 30 mg/kg, po bid administered for 6 days; type: organism-based; conditions: in vivo, 144 h, dose 10-30 mg/kg, time 6 day
hERG (KCNH2) = hERG (KCNH2) (Homo sapiens, UniProt Q12809); experiment: Inhibition of human ERG at 10 uM by patch clamp method relative to control; type: toxicity
[17] = AUC(0 to infinity) in mouse at 30 mg/kg, IG; type: ADME, organism-based; set-up: dose 30 mg/kg, route ig; conditions: in vivo, po
[18] = Cmax in mouse at 30 mg/kg, IG; type: ADME, organism-based; set-up: dose 30 mg/kg, route ig; conditions: in vivo, po

Sequence of CYP3A4 (P08684 whole entry): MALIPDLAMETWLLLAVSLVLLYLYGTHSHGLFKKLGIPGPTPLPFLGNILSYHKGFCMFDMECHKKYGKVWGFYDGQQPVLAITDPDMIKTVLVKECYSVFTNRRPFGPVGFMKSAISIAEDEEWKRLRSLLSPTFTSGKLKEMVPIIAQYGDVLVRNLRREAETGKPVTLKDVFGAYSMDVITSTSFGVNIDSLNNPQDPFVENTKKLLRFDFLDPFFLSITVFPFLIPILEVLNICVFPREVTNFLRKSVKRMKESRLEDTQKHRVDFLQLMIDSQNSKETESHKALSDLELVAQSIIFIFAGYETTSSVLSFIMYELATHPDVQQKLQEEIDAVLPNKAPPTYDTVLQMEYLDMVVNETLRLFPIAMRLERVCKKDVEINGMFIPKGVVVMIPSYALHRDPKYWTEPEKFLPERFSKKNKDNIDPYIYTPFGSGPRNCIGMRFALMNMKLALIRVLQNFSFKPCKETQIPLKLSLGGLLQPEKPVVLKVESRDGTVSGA
Sequence of CYP2C19 (P33261 whole entry): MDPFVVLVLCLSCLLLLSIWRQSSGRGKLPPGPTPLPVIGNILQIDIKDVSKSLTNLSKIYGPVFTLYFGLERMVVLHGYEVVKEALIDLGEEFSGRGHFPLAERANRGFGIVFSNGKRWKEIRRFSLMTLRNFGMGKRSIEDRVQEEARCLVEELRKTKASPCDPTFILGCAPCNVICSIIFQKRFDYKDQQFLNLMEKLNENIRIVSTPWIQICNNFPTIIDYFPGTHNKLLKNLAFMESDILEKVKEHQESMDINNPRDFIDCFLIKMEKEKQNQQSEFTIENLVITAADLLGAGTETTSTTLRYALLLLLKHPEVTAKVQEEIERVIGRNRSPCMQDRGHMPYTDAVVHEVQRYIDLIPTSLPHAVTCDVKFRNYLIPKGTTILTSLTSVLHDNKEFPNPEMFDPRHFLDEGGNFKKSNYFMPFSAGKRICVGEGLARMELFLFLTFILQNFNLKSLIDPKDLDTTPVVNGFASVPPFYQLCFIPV
Sequence of CYP2D6 (P10635 whole entry): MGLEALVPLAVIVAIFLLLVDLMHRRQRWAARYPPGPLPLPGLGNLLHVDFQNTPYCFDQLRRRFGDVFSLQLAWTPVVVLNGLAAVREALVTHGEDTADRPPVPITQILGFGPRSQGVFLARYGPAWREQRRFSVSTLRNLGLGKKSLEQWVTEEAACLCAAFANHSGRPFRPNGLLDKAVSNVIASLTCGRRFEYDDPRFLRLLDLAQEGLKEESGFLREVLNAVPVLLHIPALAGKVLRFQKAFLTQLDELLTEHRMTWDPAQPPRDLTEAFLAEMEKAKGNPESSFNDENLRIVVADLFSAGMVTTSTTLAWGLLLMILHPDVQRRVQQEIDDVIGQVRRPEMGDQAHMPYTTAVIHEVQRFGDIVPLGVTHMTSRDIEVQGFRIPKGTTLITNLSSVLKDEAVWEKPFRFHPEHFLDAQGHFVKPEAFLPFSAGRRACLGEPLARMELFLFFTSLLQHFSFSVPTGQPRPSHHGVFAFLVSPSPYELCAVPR
Sequence of hERG (KCNH2) (Q12809 whole entry): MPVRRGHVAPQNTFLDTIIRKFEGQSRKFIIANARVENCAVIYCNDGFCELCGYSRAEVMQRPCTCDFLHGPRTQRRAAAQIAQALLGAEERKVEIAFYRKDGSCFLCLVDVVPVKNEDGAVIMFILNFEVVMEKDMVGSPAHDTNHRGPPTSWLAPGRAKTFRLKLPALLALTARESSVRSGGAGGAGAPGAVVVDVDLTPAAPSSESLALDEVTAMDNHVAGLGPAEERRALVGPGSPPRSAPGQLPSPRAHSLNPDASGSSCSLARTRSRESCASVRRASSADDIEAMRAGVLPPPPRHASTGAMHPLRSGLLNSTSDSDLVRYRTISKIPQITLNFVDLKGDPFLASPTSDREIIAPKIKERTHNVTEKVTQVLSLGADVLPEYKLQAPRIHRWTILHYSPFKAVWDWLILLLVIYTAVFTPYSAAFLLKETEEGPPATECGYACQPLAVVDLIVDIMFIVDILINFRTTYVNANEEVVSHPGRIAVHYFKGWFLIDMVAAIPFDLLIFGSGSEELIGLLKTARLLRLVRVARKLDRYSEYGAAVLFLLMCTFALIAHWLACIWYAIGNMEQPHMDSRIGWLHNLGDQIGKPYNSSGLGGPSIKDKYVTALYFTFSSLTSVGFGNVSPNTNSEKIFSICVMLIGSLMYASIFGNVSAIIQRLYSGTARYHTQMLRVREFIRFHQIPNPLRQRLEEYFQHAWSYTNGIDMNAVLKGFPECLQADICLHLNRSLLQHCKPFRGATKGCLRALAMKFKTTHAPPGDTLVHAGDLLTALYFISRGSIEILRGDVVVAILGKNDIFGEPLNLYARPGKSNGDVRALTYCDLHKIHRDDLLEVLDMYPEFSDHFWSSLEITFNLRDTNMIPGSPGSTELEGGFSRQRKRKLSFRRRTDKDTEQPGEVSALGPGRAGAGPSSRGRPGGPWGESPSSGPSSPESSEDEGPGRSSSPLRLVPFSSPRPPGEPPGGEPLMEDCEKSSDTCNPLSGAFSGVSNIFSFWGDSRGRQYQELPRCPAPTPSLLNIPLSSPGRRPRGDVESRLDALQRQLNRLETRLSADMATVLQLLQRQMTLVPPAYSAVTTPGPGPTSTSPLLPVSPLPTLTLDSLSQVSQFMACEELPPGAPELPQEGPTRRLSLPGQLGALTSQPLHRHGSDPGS
Sequence of JAK3/JAK1 (P52333 whole entry): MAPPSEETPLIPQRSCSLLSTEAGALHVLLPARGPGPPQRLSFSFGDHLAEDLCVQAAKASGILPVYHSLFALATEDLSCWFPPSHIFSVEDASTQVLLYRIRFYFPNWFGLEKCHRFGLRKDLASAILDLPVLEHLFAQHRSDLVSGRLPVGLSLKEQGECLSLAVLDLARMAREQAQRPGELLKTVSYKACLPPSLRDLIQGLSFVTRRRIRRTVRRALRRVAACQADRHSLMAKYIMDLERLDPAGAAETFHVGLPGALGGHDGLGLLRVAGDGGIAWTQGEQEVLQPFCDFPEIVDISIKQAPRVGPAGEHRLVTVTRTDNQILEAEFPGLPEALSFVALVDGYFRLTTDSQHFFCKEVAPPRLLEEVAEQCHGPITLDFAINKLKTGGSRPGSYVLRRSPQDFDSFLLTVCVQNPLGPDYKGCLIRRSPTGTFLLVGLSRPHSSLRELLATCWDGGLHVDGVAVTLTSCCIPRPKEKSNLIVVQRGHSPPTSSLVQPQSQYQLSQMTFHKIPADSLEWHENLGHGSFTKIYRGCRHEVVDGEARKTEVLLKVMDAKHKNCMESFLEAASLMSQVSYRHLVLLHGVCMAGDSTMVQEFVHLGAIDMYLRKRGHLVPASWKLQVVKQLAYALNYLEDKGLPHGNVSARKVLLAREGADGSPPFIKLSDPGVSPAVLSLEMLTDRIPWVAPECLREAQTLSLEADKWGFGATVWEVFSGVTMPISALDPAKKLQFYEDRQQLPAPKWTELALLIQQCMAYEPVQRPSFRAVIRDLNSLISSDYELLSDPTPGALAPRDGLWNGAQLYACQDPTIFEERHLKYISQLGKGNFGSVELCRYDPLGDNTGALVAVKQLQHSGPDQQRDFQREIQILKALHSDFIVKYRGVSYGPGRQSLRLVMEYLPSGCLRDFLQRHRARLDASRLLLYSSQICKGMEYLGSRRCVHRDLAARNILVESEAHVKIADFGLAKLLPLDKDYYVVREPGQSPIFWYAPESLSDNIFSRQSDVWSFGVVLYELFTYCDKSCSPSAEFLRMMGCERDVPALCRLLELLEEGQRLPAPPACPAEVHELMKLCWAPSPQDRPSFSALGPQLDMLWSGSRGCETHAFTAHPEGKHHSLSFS
Sequence of JAK3/JAK1 (P23458 whole entry): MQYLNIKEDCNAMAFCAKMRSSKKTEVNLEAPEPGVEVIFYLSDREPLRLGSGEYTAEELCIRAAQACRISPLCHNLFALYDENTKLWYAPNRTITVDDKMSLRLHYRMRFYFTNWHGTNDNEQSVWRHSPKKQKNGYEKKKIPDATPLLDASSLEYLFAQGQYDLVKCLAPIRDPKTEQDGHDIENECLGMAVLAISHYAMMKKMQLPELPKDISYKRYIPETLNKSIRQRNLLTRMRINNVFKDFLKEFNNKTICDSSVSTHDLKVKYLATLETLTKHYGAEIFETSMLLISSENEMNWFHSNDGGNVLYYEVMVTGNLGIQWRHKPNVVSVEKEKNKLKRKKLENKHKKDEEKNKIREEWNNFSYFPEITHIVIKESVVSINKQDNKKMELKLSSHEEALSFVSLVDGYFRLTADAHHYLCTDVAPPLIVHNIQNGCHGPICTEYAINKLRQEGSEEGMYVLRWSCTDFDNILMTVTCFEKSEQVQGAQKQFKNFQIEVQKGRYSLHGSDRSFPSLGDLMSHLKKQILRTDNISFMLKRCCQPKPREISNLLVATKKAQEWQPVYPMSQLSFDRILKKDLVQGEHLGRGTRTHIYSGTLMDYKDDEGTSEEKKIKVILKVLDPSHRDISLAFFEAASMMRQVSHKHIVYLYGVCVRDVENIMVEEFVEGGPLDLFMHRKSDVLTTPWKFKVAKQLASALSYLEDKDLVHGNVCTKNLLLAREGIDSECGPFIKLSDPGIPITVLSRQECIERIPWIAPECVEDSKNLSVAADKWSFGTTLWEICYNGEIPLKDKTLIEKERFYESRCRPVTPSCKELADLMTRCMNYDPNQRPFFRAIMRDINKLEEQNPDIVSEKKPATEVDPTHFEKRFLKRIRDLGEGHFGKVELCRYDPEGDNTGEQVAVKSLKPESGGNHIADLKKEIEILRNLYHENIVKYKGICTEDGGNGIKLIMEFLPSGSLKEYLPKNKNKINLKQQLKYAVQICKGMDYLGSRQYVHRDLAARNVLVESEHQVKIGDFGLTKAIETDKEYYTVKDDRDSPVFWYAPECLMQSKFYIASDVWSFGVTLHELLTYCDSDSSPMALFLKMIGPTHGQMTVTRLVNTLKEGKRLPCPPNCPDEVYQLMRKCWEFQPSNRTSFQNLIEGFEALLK

remaining at 1 h [1]: 93.3%
fraction unbound [2]: 0.0022
pIC50 (JAK3/JAK1): 6.01
pIC50 [3]: 5.57
AUC [4]: 1694 ng·h/mL
Vd [5]: 1.29 L/kg
inhibition at 1 µM (CYP2C9): 7%
half-life [6]: 14.7 h
inhibition at 1 µM (CYP2D6): -9%
MRT last [7]: 5.21 h
C0 [8]: 702 ng/mL
pIC50 [9]: 8.32
inhibition at 1 µM (CYP3A4): 5.25%
F [10]: 118.87%
half-life [11]: 1.52 h
inhibition at 1 µM (CYP2B6): 16.9%
clearance [12]: 9.83 mL/min/kg
inhibition at 1 µM (CYP2C19): -5.42%
MRT last [13]: 2.12 h
Tmax [14]: 4 h
inhibition at 1 µM (CYP1A2): 1.18%
remaining at 1 h [15]: 106%
AUC [17]: 171069 ng·h/mL
Cmax [18]: 7100 ng/mL
Compound: [2H]C([2H])([2H])NC(=O)c1nnc(NC(=O)C2CC2)cc1Nc1cccc(C(=O)Nc2ccc(-c3ncn(C4CC4)n3)cc2)c1OC
Activity [16]: Non-Toxic
inhibition at 10 µM (hERG (KCNH2)): 27.8%
